# From patent publication US12662505B2, “Steviol glycoside solubility enhancers” (CARGILL, INCORPORATED, priority 2019, dated 2026)
# Assays:
# [1] = assay type: physicochemical
# Method: Clear solutions without precipitates are considered soluble. Unless indicated otherwise herein, the term “solubility” refers to “equilibrium solubility.”
# Upon heating to 80° C. for 15 minutes, rebaudioside D has an equilibrium solubility of 0.08% for at least four days at room temperature.
# [2] = sensory evaluation; cited from earlier work
equilibrium solubility [1],instantaneous solubility [1],Structure (SMILES),sweetness relative to sucrose [2]
0.08%,less than 0.08%,C=C1C[C@@]23CC[C@H]4[C@@](C)(CCC[C@@]4(C)C(=O)O[C@@H]4O[C@H](CO)[C@@H](O)[C@H](O)[C@H]4O[C@@H]4O[C@H](CO)[C@@H](O)[C@H](O)[C@H]4O)[C@@H]2CC[C@]1(O[C@@H]1O[C@H](CO)[C@@H](O)[C@H](O[C@@H]2O[C@H](CO)[C@@H](O)[C@H](O)[C@H]2O)[C@H]1O[C@@H]1O[C@H](CO)[C@@H](O)[C@H](O)[C@H]1O)C3 [Rebaudioside D],200-220 times sweeter than sucrose
about 0.2%,about 0.13%,C=C1C[C@@]23CC[C@H]4[C@@](C)(CCC[C@@]4(C)C(=O)O[C@@H]4O[C@H](CO)[C@@H](O)[C@H](O[C@@H]5O[C@H](CO)[C@@H](O)[C@H](O)[C@H]5O)[C@H]4O[C@@H]4O[C@H](CO)[C@@H](O)[C@H](O)[C@H]4O)[C@@H]2CC[C@]1(O[C@@H]1O[C@H](CO)[C@@H](O)[C@H](O[C@@H]2O[C@H](CO)[C@@H](O)[C@H](O)[C@H]2O)[C@H]1O[C@@H]1O[C@H](CO)[C@@H](O)[C@H](O)[C@H]1O)C3 [Rebaudioside M],–
